What was measured:
E. coli DH5α/pLBII = assay: Broth microdilution MIC assay, empty vector control strain; format: cell-based; details: Escherichia coli, read-out: E. coli DH5α/pLBII Microbiological Activity (MIC)
How it was run: (§1)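 CLSI broth microdilution in cation-supplemented Mueller-Hinton broth, 2-fold compound dilutions, 5×10^5 CFU/mL inoculum, 16-20 h at 37° C, MIC read visually as lowest concentration without growth. E. coli DH5α carries CTX-M15 on pLBII under Lac promoter, or empty pLBII as control.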

[1] = target: T1, PBP3 from Escherichia coli (Escherichia coli, UniProt P0AD68); assay: Fluorescence polarization competition binding assay with Bocillin-FL
T1 construct: made in house
T1 sequence (P0AD68 1-577): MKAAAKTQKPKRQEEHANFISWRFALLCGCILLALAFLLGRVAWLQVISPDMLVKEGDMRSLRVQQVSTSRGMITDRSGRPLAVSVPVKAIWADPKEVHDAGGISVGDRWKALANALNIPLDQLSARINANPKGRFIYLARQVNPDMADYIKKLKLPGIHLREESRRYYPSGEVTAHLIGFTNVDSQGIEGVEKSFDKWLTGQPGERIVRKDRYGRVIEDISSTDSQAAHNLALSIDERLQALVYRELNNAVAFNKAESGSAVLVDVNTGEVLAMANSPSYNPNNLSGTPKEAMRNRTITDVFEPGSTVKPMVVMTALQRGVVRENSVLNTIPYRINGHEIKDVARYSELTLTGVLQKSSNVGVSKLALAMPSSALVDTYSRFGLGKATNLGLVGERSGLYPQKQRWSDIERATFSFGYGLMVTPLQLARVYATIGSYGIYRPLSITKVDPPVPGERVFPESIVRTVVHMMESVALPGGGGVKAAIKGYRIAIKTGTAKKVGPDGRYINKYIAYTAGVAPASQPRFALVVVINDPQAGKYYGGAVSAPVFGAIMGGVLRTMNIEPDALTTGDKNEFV
Source text: To determine the ability of boronic acid-based test PBP inhibitors to bind Penicillin Binding Proteins (PBPs), Bocillin-FL (fluorescently-labeled penicillin V; ThermoFisher Scientific) was used in a fluorescence polarization (FP) competition binding assay to assess boronic acid PBP inhibitor binding to PBP3 from Escherichia coli. PBP3 from Escherichia coli was cloned and purified as described previously (King, D. T, et al., ACS Infectious Diseases 2015, 1, 175-184). To establish assay conditions for competition binding, an enzyme titration/saturation binding experiment was performed. Bocillin-FL was prepared at […] in a buffer comprised of 50 mM Hepes (pH 8.0), 300 mM NaCl and 5% (v/v) glycerol. Saturation binding was performed by mixing […] of PBP3 ranging in concentrations from […] with 40 μl of the 0.2 μM Bocillin-FL solution, in individual wells of a black 384-well microplate. FP was measured immediately upon addition of PBP3 (Ex, Em), using a Cytation3 (BioTek) microplate reader and measured continuously for 60 minutes. […] The competition binding assay was validated using the beta-lactam ampicillin, with Bocillin-FL at a final concentration of 0.1 μM, PBP3 at a final concentration of 1.5 μM and concentrations of ampicillin from 0-1000 μM. PBP3 was incubated with ampicillin at different concentrations in a black 384-well microplate (Corning) for 30 minutes, then Bocillin-FL added and the FP immediately measured for 60 minutes. […] Binding assays for boronic acid PBP inhibitors were performed in an identical fashion. Representative results are shown in Table 3, where A represents a potency of >500 μM, B represents a potency between 30 μM and 500 μM inclusive, and C represents a potency of <30 μM. NT=Not Tested.

[2] = target: T2, PBP1a from Escherichia coli (Escherichia coli, UniProt P02918); assay: Radioligand competition binding assay with 14C-labeled boronic acid probe (Example 96); details: 14C-labeled probe 96 at 20 μM, PBP 0.1 μM; read-out: E. coli K12 PBP1a EC50
T2 construct: made in house
T2 sequence (P02918 whole entry): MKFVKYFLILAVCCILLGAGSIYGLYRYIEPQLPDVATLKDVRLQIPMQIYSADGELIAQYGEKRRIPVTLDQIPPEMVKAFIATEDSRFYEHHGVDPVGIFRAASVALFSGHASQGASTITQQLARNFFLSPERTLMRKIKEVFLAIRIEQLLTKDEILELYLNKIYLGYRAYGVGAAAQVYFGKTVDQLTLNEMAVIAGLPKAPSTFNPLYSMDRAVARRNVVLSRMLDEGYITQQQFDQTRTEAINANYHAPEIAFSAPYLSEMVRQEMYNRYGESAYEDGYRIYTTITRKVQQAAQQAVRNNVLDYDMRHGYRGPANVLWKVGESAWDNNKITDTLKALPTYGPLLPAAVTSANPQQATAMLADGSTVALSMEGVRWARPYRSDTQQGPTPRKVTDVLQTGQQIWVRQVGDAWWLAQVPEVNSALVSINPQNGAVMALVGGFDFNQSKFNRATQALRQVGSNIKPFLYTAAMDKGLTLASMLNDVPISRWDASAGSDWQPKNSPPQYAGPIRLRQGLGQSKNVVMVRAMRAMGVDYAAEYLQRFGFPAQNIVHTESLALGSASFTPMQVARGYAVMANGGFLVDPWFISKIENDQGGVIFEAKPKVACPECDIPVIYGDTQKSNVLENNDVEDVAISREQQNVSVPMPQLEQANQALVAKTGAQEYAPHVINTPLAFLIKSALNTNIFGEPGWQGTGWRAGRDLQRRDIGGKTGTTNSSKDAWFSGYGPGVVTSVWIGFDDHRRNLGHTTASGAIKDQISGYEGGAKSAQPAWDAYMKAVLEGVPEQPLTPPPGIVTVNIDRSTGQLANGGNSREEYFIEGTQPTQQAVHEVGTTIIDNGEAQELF
Source text: To determine the ability of boronic acid-based test PBP inhibitors to bind Penicillin Binding Proteins (PBPs), a radio-labelled boronic acid PBP inhibitor (Example 96) was used in competition binding assays to determine boronic acid PBP inhibitor binding to PBP1a or PBP1b from Escherichia coli. PBP1a and PBP1b were purified as described previously (Bertsche, U.; et al., J. Biol. Chem. 2005, 280 (45), 38096-38101; Born, P.; et al., J Biol. Chem. 2006. 281 (37), 26985-26993). To establish assay conditions for competition binding, an enzyme titration/saturation binding experiment was performed. Saturation binding was performed in a buffer comprised of 20 mM Tris (pH 7.5), 500 mM NaCl and 0.1% (v/v) TritonX-100, with PBP1a/PBP1b at a final concentration of 0.1 μM and 96 at final concentrations ranging from 0-100 μM. Mixtures were incubated for 60 minutes, then applied to Zeba Spin Desalting columns or plates (ThermoFisher Scientific) and centrifuged at 1000-1500×g for 2 minutes. The flow through, containing PBP bound with 96, was recovered and 100 μL mixed with 5 mL of UltimaGold liquid scintillation cocktail (Perkin Elmer), and the radioactivity counted using a Beckman Coulter LS 6500 Multipurpose scintillation counter. PBP binding of 96 approached saturation at 20 μM of ^14C-labeled probe. The competition binding assay was validated using the beta-lactam ampicillin, with 96 at a final concentration of 20 μM, PBP1a/PBP1b at a final concentration of 0.1 μM. PBP1a/PBP1b was incubated with ampicillin in a 96-well microplate for 60 minutes, then 96 was added and the mixtures incubated for an additional 60 minutes. The mixtures were then applied to Zeba Spin desalting plates and centrifuged at 1000×g for 2 minutes. The flow through was recovered and 100 μl mixed with 5 ml of UltimaGold liquid scintillation cocktail and the radioactivity counted. Ampicillin inhibited binding of 96 with an EC50 (the concentration of inhibitor required to reduce binding of 96 by 50%) of less than 0.5 μM. Binding assays with boronic acid PBP inhibitors were performed in an identical fashion. The potency of boronic acid PBP inhibitors was reported as the EC50 value.
Representative results are shown in Table 5, where A represents a potency of >100 μM, B represents a potency between 10 μM and 100 μM inclusive, and C represents a potency of <10 μM. NT=Not Tested.

S. aureus ATCC 29213 = assay: Broth microdilution MIC assay; format: cell-based; details: Staphylococcus aureus, ATCC29213; broth microdilution, 16-20 hours at 37° C.; read-out: S. aureus 29213 MIC
How it was run: (§2)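 CLSI broth microdilution in cation-supplemented Mueller-Hinton broth; 2-fold serial compound dilutions inoculated at 5×10^5 CFU/mL from 3-5 h log-phase cultures. Plates incubated 16-20 hours at 37° C. MIC read visually as lowest concentration with no bacterial growth.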

[3] = test system: hyper-permeable E. coli 901C; assay: Broth microdilution MIC assay; format: cell-based; details: Escherichia coli, read-out: E. coli 901C MIC
How it was run: as §2

[4] = test system: E. coli DH5α/pLBII-CTX-M15; assay: Broth microdilution MIC assay, engineered strain producing CTX-M15; format: cell-based, Escherichia coli; details: Escherichia coli, read-out: E. coli DH5α/pLBII-CTX-M15 Microbiological Activity (MIC)
How it was run: as §1

SMILES | MIC (E. coli DH5α/pLBII) [µg/mL] | EC50 [1] [µM] | EC50 [2] [µM] | MIC (S. aureus ATCC 29213) [µg/mL] | MIC [3] [µg/mL] | MIC [4] [µg/mL]
CCC(O)[C@@H](NC(=O)N1CCN(CC)C(=O)C1=O)C(=O)N[C@H]1Cc2cccc(C(=O)O)c2OB1O (single isomer, unassigned) [Example 82] | 32 to 64 | 30 to 500 | < 10 | > 128 | < 64 | 32 to 64
Nc1nc(C(NC(=O)N2CCN(CCF)C(=O)C2=O)C(=O)N[C@H]2Cc3cccc(C(=O)O)c3OB2O)cs1 (stereo partly drawn) [Example 52, (3R)-3-(2-(2-aminothiazol-4-yl)-2-(4-(2-fluoroethyl)-2,3-dioxopiperazine-1-carboxamido)acetamido)-2-hydroxy-3,4-dihydro-2H-benzo[e][1,2]oxaborinine-8-carboxylic acid] | 8 to 16 | 30 to 500 | – | 64 to 128 | < 64 | 8 to 16
CCCCN1CCN(C(=O)NC(C(=O)N[C@H]2Cc3cccc(C(=O)O)c3OB2O)c2csc(N)n2)C(=O)C1=O (stereo partly drawn) [Example 53, (3R)-3-(2-(2-aminothiazol-4-yl)-2-(4-butyl-2,3-dioxopiperazine-1-carboxamido)acetamido)-2-hydroxy-3,4-dihydro-2H-benzo[e][1,2]oxaborinine-8-carboxylic acid] | 32 to 64 | < 30 | – | 64 to 128 | < 64 | 32 to 64
CC(C)N1CCN(C(=O)NC(C(=O)N[C@H]2Cc3cccc(C(=O)O)c3OB2O)c2csc(N)n2)C(=O)C1=O (stereo partly drawn) [Example 55, (3R)-3-(2-(2-aminothiazol-4-yl)-2-(4-isopropyl-2,3-dioxopiperazine-1-carboxamido)acetamido)-2-hydroxy-3,4-dihydro-2H-benzo[e][1,2]oxaborinine-8-carboxylic acid] | 8 to 16 | 30 to 500 | – | 64 to 128 | < 64 | 8 to 16
Nc1nc(C(NC(=O)N2CCN(CCF)C(=O)C2=O)C(=O)N[C@H]2Cc3cccc(C(=O)O)c3OB2O)c(Cl)s1 (stereo partly drawn) [Example 57, (3R)-3-(2-(2-amino-5-chlorothiazol-4-yl)-2-(4-(2-fluoroethyl)-2,3-dioxopiperazine-1-carboxamido)acetamido)-2-hydroxy-3,4-dihydro-2H-benzo[e][1,2]oxaborinine-8-carboxylic acid] | 8 to 16 | 30 to 500 | – | > 128 | < 64 | 8 to 16
NCCN1CCN(C(=O)NC(C(=O)N[C@H]2Cc3cccc(C(=O)O)c3OB2O)c2csc(N)n2)C(=O)C1=O (stereo partly drawn) [Example 58, (3R)-3-(2-(4-(2-aminoethyl)-2,3-dioxopiperazine-1-carboxamido)-2-(2-aminothiazol-4-yl)acetamido)-2-hydroxy-3,4-dihydro-2H-benzo[e][1,2]oxaborinine-8-carboxylic acid] | 32 to 64 | 30 to 500 | – | > 128 | < 64 | 32 to 64
CCN1CCN(C(=O)N[C@H](CCO)C(=O)N[C@H]2Cc3cccc(C(=O)O)c3OB2O)C(=O)C1=O [Example 59, (R)-3-((R)-2-(4-ethyl-2,3-dioxopiperazine-1-carboxamido)-4-hydroxybutanamido)-2-hydroxy-3,4-dihydro-2H-benzo[e][1,2]oxaborinine-8-carboxylic acid] | 32 to 64 | > 500 | – | > 128 | < 64 | 32 to 64
Nc1nc(C(NC(=O)N2CCN(CCO)C(=O)C2=O)C(=O)N[C@H]2Cc3cccc(C(=O)O)c3OB2O)cs1 (stereo partly drawn) [Example 60, (3R)-3-(2-(2-aminothiazol-4-yl)-2-(4-(2-hydroxyethyl)-2,3-dioxopiperazine-1-carboxamido)acetamido)-2-hydroxy-3,4-dihydro-2H-benzo[e][1,2]oxaborinine-8-carboxylic acid] | 8 to 16 | 30 to 500 | – | 64 to 128 | < 64 | 8 to 16
COCCN1CCN(C(=O)NC(C(=O)N[C@H]2Cc3cccc(C(=O)O)c3OB2O)c2csc(N)n2)C(=O)C1=O (stereo partly drawn) [Example 61, (3R)-3-(2-(2-aminothiazol-4-yl)-2-(4-(2-methoxyethyl)-2,3-dioxopiperazine-1-carboxamido)acetamido)-2-hydroxy-3,4-dihydro-2H-benzo[e][1,2]oxaborinine-8-carboxylic acid] | 32 to 64 | < 30 | – | 64 to 128 | < 64 | 32 to 64
CCN1CCN(C(=O)NC(C(=O)N[C@H]2Cc3cccc(C(=O)O)c3OB2O)c2csc(N)n2)CC1=O (stereo partly drawn) [Example 62, (3R)-3-(2-(2-aminothiazol-4-yl)-2-(4-ethyl-3-oxopiperazine-1-carboxamido)acetamido)-2-hydroxy-3,4-dihydro-2H-benzo[e][1,2]oxaborinine-8-carboxylic acid] | 128 to 256 | 30 to 500 | – | > 128 | < 64 | 128 to 256
CC(C)CN1CCN(C(=O)NC(C(=O)N[C@H]2Cc3cccc(C(=O)O)c3OB2O)c2csc(N)n2)C(=O)C1=O (stereo partly drawn) [Example 66, (3R)-3-(2-(2-aminothiazol-4-yl)-2-(4-isobutyl-2,3-dioxopiperazine-1-carboxamido)acetamido)-2-hydroxy-3,4-dihydro-2H-benzo[e][1,2]oxaborinine-8-carboxylic acid] | 32 to 64 | 30 to 500 | – | 64 to 128 | < 64 | 32 to 64
Nc1nc(C(NC(=O)N2CCN(O)C(=O)C2=O)C(=O)N[C@H]2Cc3cccc(C(=O)O)c3OB2O)cs1 (stereo partly drawn) [Example 72, (3R)-3-(2-(2-aminothiazol-4-yl)-2-(4-hydroxy-2,3-dioxopiperazine-1-carboxamido)acetamido)-2-hydroxy-3,4-dihydro-2H-benzo[e][1,2]oxaborinine-8-carboxylic acid] | 128 to 256 | 30 to 500 | – | 64 to 128 | < 64 | 128 to 256
CCN1CCN(C(=O)N[C@@H](C(=O)N[C@H]2Cc3cccc(C(=O)O)c3OB2O)C(C)(C)C)C(=O)C1=O [Example 85, (R)-3-((R)-2-(4-ethyl-2,3-dioxopiperazine-1-carboxamido)-3,3-dimethylbutanamido)-2-hydroxy-3,4-dihydro-2H-benzo[e][1,2]oxaborinine-8-carboxylic acid] | – | < 30 | < 10 | > 128 | < 64 | 128 to 256

Reference: patent US11332485B2, “Penicillin-binding protein inhibitors” (priority 2017, dated 2022)
